A short description of the series: Levothyroxine solubilization in aqueous amino acid solutions. In kind it is physicochemical. As to conditions: aqueous buffer. The procedure:
The formulations can further include one or more pH adjusters, for example, a single pH adjuster. The pH adjuster can be an amino acid, which can be the sole amino acid and pH adjuster in the formulation. The pH adjuster serves to aid in adjusting the pH of the aqueous formulation and selectively the solubilization of levothyroxine or any salt thereof in the liquid formulation. In one or more embodiments, the pH adjuster is arginine. In water, a concentration of arginine from about 1 mg/mL to about 20 mg/mL adjust the pH of water to about 10.3 to about 11.

Values after ≈ are worked out from the molar mass of the structure shown. Some results are limits rather than exact numbers.

Consider `N[C@@H](Cc1cc(I)c(Oc2cc(I)c(O)c(I)c2)c(I)c1)C(=O)O` [levothyroxine, 4-(4-hydroxy-3,5-diiodophenoxy)-3,5-diiodo-L-phenylalanine], for which the solubility was above 500 µg/mL (aqueous arginine solution, arginine in aqueous solutions); 450 µg/mL (≈ 579 µM) (aqueous aspartic acid solution, aspartic acid 1 mg/mL in water); 100 µg/mL (≈ 129 µM) (aqueous aspartic acid solution, aspartic acid 4 mg/mL in water).

What is called solubility is the concentration that dissolves in the medium under given conditions.

Values taken from patent US20200237695A1, “LEVOTHYROXINE LIQUID FORMULATIONS” (Hikma Pharmaceuticals USA Inc., priority 2019, published 2020).
